How the values were obtained:
[1] = tested on: MM1R myeloma target cells; test: PBMC-mediated MM1R target cell killing, first experiment (48 hrs, 3 μM pomalidomide); assay type: cell-based; details: PBMC:MM1R 10:1, 48 hrs, with or without 3 μM pomalidomide
Experimental: (§1) Experiments were performed to test whether SEA-BCMA combines effectively with pomalidomide in vitro by combining PBMC effector cells with MM1R target cells treated with both pomalidomide and SEA-BCMA or antibody controls. The first experiment (FIG. 12A) benchmarks against MM standard of care elotuzumab and nonfucosylated parent BCMA antibody. The second experiment (FIG. 12B) benchmarks against MM standard of care daratumumab. MM1R target cells express 15,000 copies of BCMA, 12,000 copies of CS1 (elotuzumab target), and 36,000 copies of CD38 (daratumumab target).
In the first experiment (FIG. 12A), normal donor PBMCs of the FcγRIII V/F genotype were mixed with CFSE (Invitrogen cat #V12883) labeled MM1R myeloma target cells at an effector-to-target cell ratio of 10:1. The mixture was treated with a dose range of the following antibodies: SEA-BCMA, elotuzumab, WT-BCMA (fucosylated parent Ab), or non-binding hIgG1k antibody control (Sigma cat #15154) with or without 3 μM pomalidomide (APEx Bio, cat #A4211). After 48 hrs, the % live MM1R cells were then determined using the viability dye 7-AAD (BD Biosciences, cat #559925) by flow cytometry.

NCI-H929 cells = test: BCMA expression by flow cytometry after GSI incubation, NCI-H929; assay type: cell-based; details: NCI-H929, 1 μM DAPT for 24 hrs vs untreated
Molp-8 cells = test: BCMA expression by flow cytometry after GSI incubation, Molp-8; assay type: cell-based
FcγRIII [2] = test: FcγRIII signaling ADCC reporter bioassay, NCI-H929 target cells; assay type: cell-based; details: NCI-H929 bound with antibody dose titrations, +/- DAPT, CD16A-Jurkat effector cells 6:1
Experimental: (§2) NCI-H929 or Molp-8 MM target cells were incubated with and without 1 μM DAPT for 24 hrs. […] FcγRIII signaling was determined using a surrogate assay as manufacturer describes (Promega ADCC reporter bioassay cat #G9302). Cells were bound with antibody dose titrations+/−GSI for 30 minutes at 37° C. CD16A-Jurkat effector cells were then added with a 6:1 effector-to-target cell ratio. After an overnight incubation, the assay was developed with Bio-Glo and relative luminescence units (RLU) were measured on an Envision plate reader. […] Enhanced signaling is the first step in the primary mechanism of action of SEA-BCMA. This signaling can translate to increased anti-MM cell lysis through ADCC.

FcγRIII [3] = test: FcγRIII signaling ADCC reporter bioassay, Molp-8 target cells; assay type: cell-based; details: Molp-8 bound with antibody dose titrations, +/- DAPT, CD16A-Jurkat effector cells 6:1
Experimental: as §2

U266 = test: BCMA expression by flow cytometry after Nirogacestat, U266; assay type: cell-based; details: U266, after incubation with Nirogacestat (FIG. 9A)
NF-κB p65 = NF-κB p65 activity ELISA on nuclear extract; assay type: cell-based; details: NCI-H929, serum-starved, 0.2 μM Nirogacestat 16 hrs, +/- 1 μg/ml APRIL
Experimental: The secondary mechanism of action of SEA-BCMA is to block BCMA proliferative cell signaling. Increased BCMA from GSI treatment is expected to induce increased BCMA signaling. Therefore, the block of this enhanced signaling by SEA-BCMA was tested. BCMA-expressing NCI-H929 cells were serum-starved with and without 0.2 μM Nirogacestat (purchased from SelleckChem) for 16 hrs. Cells were then bound with and without 20 μg/mL SEA-BCMA and incubated with and without 1 μg/ml recombinant human APRIL (R&D Systems) for 20 minutes at 37° C. in the presence or absence of 0.2 μM Nirogacestat. 1 μg of nuclear extract was assayed in duplicate for NF-κB p65 activity by ELISA (TransAM NFκB Chemi p65, Active Motif).

[4] = tested on: MM1R myeloma target cells; test: PBMC-mediated MM1R target cell killing, second experiment (PBMC pretreated 5 days, 0.5 μM pomalidomide); assay type: cell-based; details: PBMC:MM1R 10:1, overnight, with or without 0.5 μM pomalidomide
Experimental: as §1
In the second experiment (FIG. 12B), normal donor PBMCs of the FcγRIII V/F genotype were treated with or without 0.5 μM pomalidomide (APEx Bio, cat #A4211) for 5 days. The resulting PBMCs were then washed and mixed with CFSE (Invitrogen cat #V12883) labeled MM1R myeloma target cells at an effector-to-target cell ratio of 10:1. The mixture was then treated with a dose range of the following antibodies: SEA-BCMA, daratumumab, or non-binding hIgG1k antibody control (Sigma cat #15154) with or without 0.5 μM pomalidomide (APEx Bio, cat #A4211) and incubated overnight. Percentage live MM1R cells were then determined using the viability dye 7-AAD (BD Biosciences, cat #559925) by flow cytometry.

[5] = biological target: T1, human BCMA (B-cell maturation antigen) (human, UniProt Q02223 1-184); test: in vitro cell binding capacity assay, flow cytometry on MM1R cells
T1 construct: Endogenous BCMA on MM1R and NCI-H929 cell lines and on patients' multiple myeloma cells; also called membrane BCMA; cell-surface BCMA
T1 sequence: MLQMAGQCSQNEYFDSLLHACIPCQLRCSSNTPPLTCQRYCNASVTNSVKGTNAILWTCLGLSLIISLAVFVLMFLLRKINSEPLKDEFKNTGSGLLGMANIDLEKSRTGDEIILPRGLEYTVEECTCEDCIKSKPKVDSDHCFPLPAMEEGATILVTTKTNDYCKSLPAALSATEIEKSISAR

[6] = biological target: T1, human BCMA (B-cell maturation antigen); test: flow cytometry on MM cells from bone marrow aspirates

Molecule: Elotuzumab: MM standard of care antibody; target CS1 [reference compound]
- MM1R target cell killing (% live MM1R cells) [1]: no impact on cells unless pomalidomide was added

Molecule: C[C@H](NC(=O)Cc1cc(F)cc(F)c1)C(=O)N[C@H](C(=O)OC(C)(C)C)c1ccccc1 [DAPT]
- BCMA expression (NCI-H929 cells): increased BCMA expression
- BCMA expression (Molp-8 cells; Molp-8, 1 μM DAPT for 24 hrs vs untreated): increased BCMA expression
- FcγRIII signaling (FcγRIII [2]): increased FcγRIII signaling
- FcγRIII signaling (FcγRIII [3]): increased FcγRIII signaling

Molecule: CCC[C@H](N[C@H]1CCc2cc(F)cc(F)c2C1)C(=O)Nc1cn(C(C)(C)CNCC(C)(C)C)cn1 [Nirogacestat]
- BCMA expression (Molp-8 cells; Molp-8, Nirogacestat treated vs untreated (FIG. 9A legend)): increased BCMA expression
- BCMA expression (U266): increased BCMA expression
- NF-κB signaling (p65 activity, RLU) (NF-κB p65): increased NF-κB signaling

Molecule: Daratumumab: anti-CD38 antibody, MM standard of care [reference compound]
- MM1R target cell killing (percentage live MM1R cells) [4]: less activity than SEA-BCMA

B1: SEA-BCMA (antibody, human IgG1, kappa, V domains shown)
VH: QVQLVQSGAEVKKPGASVKLSCKASGYTFTDYYIHWVRQAPGQGLEWIGYINPNSGYTNYAQKFQGRATMTADKSINTAYVELSRLRSDDTAVYFCTRYMWERVTGFFDFWGQGTMVTVSS
VL: DIQMTQSPSSVSASVGDRVTITCLASEDISDDLAWYQQKPGKAPKVLVYTTSSLQSGVPSRFSGSGSGTDFTLTISSLQPEDFATYFCQQTYKFPPTFGGGTKVEIKR
notes: also called non-fucosylated monoclonal anti-BCMA antibody
- binding result [5]: binds

B2: APRIL (a proliferation-inducing ligand) (ligand, human, UniProt O75888 105-250, looked up)
chain: AVLTQKQKKQHSVLHLVPINATSKDDSDVTEVMWQPALRRGRGLQAQGYGVRIQDAGVYLLYSQVLFQDVTFTMGQVVSREGQGRQETLFRCIRSMPSHPDRAYNSCYSAGVFHLHQGDILSVIIPRARAKLNLSPHGTFLGFVKL
- binding result [6]: binds
